Measured values taken from PubChem BioAssay (NCI).
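Tested at 5 concentrations; 48 h exposure; 96-well plates; endpoints linearly interpolated, else capped at highest concentration. The concentration for 50% growth inhibition is given as GI50. TGI is the concentration that stops growth completely.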

What was measured:
Experiment in all cases: growth of human tumour cells (NCI), 48 h
[1] = tested on: ACHN renal
[2] = tested on: IGROV1 ovarian
[3] = tested on: LOX IMVI melanoma
[4] = tested on: M14 melanoma
[5] = tested on: NCI-H226 lung
[6] = tested on: SF-268 CNS
[7] = tested on: SF-295 CNS
[8] = tested on: SNB-75 CNS
[9] = tested on: UACC-62 melanoma
[10] = tested on: UO-31 renal

SMILES	GI50 [1] [µM]	TGI [1] [µM]	GI50 [2] [µM]	TGI [2] [µM]	GI50 [3] [µM]	TGI [3] [µM]	GI50 [4] [µM]	TGI [4] [µM]	GI50 [5] [µM]	TGI [5] [µM]	GI50 [6] [µM]	TGI [6] [µM]	GI50 [7] [µM]	TGI [7] [µM]	GI50 [8] [µM]	TGI [8] [µM]	GI50 [9] [µM]	TGI [9] [µM]	GI50 [10] [µM]	TGI [10] [µM]
NC(N)=NC(N)=Nc1cc2ccccc2c2ccccc12	5.07	17.3	4.04	19.1	5.15	22	10.6	24.7	10.5	25.5	9.61	24.1	13.3	28.4	5.12	19.9	12.1	25.8	5.05	19.9
COC(=O)C(=O)C(C(=O)C(=O)Nc1ccc(C)cc1C)c1nc2ccccc2[nH]c1=O (centres undefined)	–	> 100	–	> 100	–	> 100	–	> 100	–	> 100	–	> 100	–	> 100	–	69.2	–	> 100	–	> 100
COc1ccc(-c2cc3c(nn2)-c2ccccc2C3=O)cc1	> 100	> 100	> 100	> 100	> 100	> 100	> 100	> 100	> 100	> 100	> 100	> 100	> 100	> 100	> 100	> 100	> 100	> 100	> 100	> 100
COc1ccc(C(=O)O)c(Cc2cccc3ccccc23)c1	–	> 100	–	> 100	–	> 100	–	> 100	–	> 100	–	> 100	–	> 100	–	> 100	–	> 100	–	> 100
COc1cc(Cn2c(-c3ccccc3)cc3c2-c2oncc2CC3)cc(OC)c1OC	0.961	> 100	2.64	> 100	0.831	> 100	0.468	13.4	3.76	> 100	5.77	> 100	0.366	5.57	0.453	3.99	0.449	77.5	3.23	> 100
NCCCCn1c2c(c3ccccc3c1=O)C(=O)c1ccccc1-2	0.0161	0.123	0.314	–	0.0269	0.346	0.417	1.86	0.107	0.458	0.208	1.86	0.0726	0.753	0.372	2.37	0.0467	0.422	0.123	1.45
COc1ccc(-n2cc(-c3cc(OC)c(OC)c(OC)c3)[nH]c2=S)cc1OC	> 100	> 100	> 100	> 100	> 100	> 100	> 100	> 100	> 100	> 100	> 100	> 100	> 100	> 100	57	> 100	> 100	> 100	> 100	> 100
CN(C)C(=S)SN(C)C(=O)Nc1ccccc1	–	> 96.4	–	> 100	–	44.7	–	47.9	–	> 92.4	–	99.9	–	> 100	–	> 92.1	–	19.1	–	> 94.7
O=C(C[C@@H](C(=O)NCc1cccc(C(F)(F)F)c1)N1C(=O)[C@@H](N2C(=O)OC[C@@H]2c2ccccc2)[C@H]1/C=C/c1ccccc1)NC1CCN(Cc2ccccc2)CC1	31.2	> 100	13.3	32.4	4.03	18.9	4.58	20.4	48.2	> 100	3.81	21.4	15.6	30.8	6.21	23	3.34	13.8	13.5	55.3
CC(=O)[O][Hg][c]1c(C)c(C)c(C)c(C)c1C	10	23.1	0.604	2.2	1.29	2.82	1.35	2.65	3.65	10	0.549	2.11	1.71	3.76	1.75	3.33	0.856	2.95	3.45	7.74
O=[N+]([O-])c1ccc2nnnn2c1	–	> 100	–	> 100	–	35.8	–	> 100	–	47.3	–	> 100	–	> 100	–	> 100	–	> 100	–	> 100
COc1cc([N+](=O)[O-])ccc1NC(=O)C(F)(F)F	–	> 100	–	> 100	–	> 100	–	> 100	–	> 100	–	> 100	–	> 100	–	> 100	–	> 100	–	> 100
O=C(NC1CCCCCC1)C1C(=O)N(C2CCCCCC2)C(=O)/C1=N\O (centres undefined)	–	> 100	–	> 100	–	> 100	–	> 100	–	> 100	–	> 100	–	> 100	–	91.9	–	48.6	–	97.5
Cn1cc(-c2csc(-c3cccc(F)c3)n2)c2cccnc21	18.2	50.7	21.2	47.5	14.1	27.5	15.3	29.5	19.4	51.1	17.3	32.1	14.9	33.7	35.7	> 100	13.8	27.8	15.9	50.6
CC(C)CC(N)C(=O)O (centres undefined)	–	> 100	–	> 100	–	> 100	–	> 100	–	> 100	–	> 100	–	> 100	–	> 100	–	> 100	–	> 100
